From patent publication US9403874B2, “Peptides and use thereof” (IL YANG PHARM. CO.,LTD., priority 2012, dated 2016)

Tests used:
Assay type in all cases: cell-based
Settings in all cases: 100 ng/me of peptide; EBV-infected B cells stimulated with anti-CD150; ELISA of culture supernatant
IL-1A = test: Reduction of IL-1A secretion in activated B cells (ELISA)
Experimental: (§1) In order to determine the activity of the novel peptides synthesized in Example 1 for reducing the secretion of inflammatory cytokines, the activated pathogenic B cells were treated with each of the 18 types of synthesized novel peptides and the reduction in secretion of inflammatory cytokines from the B cells was monitored.
(§2) Specifically, in order to determine whether the novel peptides could weaken the pathogenic B cells which are involved in the development of disease symptoms, the in vitro B cells model which is similar to the joint infiltrative B cells of rheumatoid arthritis was used. The activated pathogenic B cell was generated by stimulating Ebstein Barr virus (EBV)-infected B cells with anti-CD150 antibodies, and the cells were treated with […] of each of the 18 types of novel peptide.
(§3) In order to confirm the effect of 18 types of novel peptides in reducing inflammatory cytokines, the secretion amount of various cytokines (IL-1A, IL-1B, IL-2, IL-4, IL-5, IL-6, IL-8, IL-10, IL-12A, IL-13, IL-17A, GM-CSF, IL-34) secreted from the activated B cells was measured. The supernatants of B cell culture were analyzed enzyme-linked immunosorbent assay (ELISA), and the difference in absorbance (450 nm-570 nm) of the color developing reagent was measured as test results. Based on the measured difference in absorbance (450 nm-570 nm) of the color developing reagent, the absorbance of cytokines secreted when treated with the 18 types of novel […] was calculated in percentage, while setting the absorbance corresponding to the cytokines secreted from the activated B cells stimulated by anti-CD150 as 100%.

GM-CSF = test: Reduction of GM-CSF secretion in activated B cells (ELISA)
Experimental: as §1, §2, §3

IL-8 = test: Reduction of IL-8 secretion in activated B cells (ELISA)
Experimental: as §1, §2, §3

IL-1B = test: Reduction of IL-1B secretion in activated B cells (ELISA)
Experimental: as §1, §2, §3

IL-12A = test: Reduction of IL-12A secretion in activated B cells (ELISA)
Experimental: as §1, §2, §3

IL-6 = test: Reduction of IL-6 secretion in activated B cells (ELISA)
Experimental: as §1, §2, §3

IL-17A = test: Reduction of IL-17A secretion in activated B cells (ELISA)
Experimental: as §1, §2, §3

IL-2 = test: Reduction of IL-2 secretion in activated B cells (ELISA)
Experimental: as §1, §2, §3

IL-5 = test: Reduction of IL-5 secretion in activated B cells (ELISA)
Experimental: as §1, §2, §3

IL-4 = test: Reduction of IL-4 secretion in activated B cells (ELISA)
Experimental: as §1, §2, §3

IL-34 = test: Reduction of IL-34 secretion in activated B cells (ELISA)
Experimental: as §1, §2, §3

IL-10 = test: Reduction of IL-10 secretion in activated B cells (ELISA)
Experimental: as §1, §2, §3

IL-13 = test: Reduction of IL-13 secretion in activated B cells (ELISA)
Experimental: as §1, §2, §3

Row | Substance | Inhibition rate of each cytokine compared to CD150-stimulated EBV-t B cells (%) IL-1A (IL-1A) [%] | Inhibition rate of each cytokine compared to CD150-stimulated EBV-t B cells (%) GM-CSF (GM-CSF) [%] | Inhibition rate of each cytokine compared to CD150-stimulated EBV-t B cells (%) IL-8 (IL-8) [%] | Inhibition rate of each cytokine compared to CD150-stimulated EBV-t B cells (%) IL-1B (IL-1B) [%] | Inhibition rate of each cytokine compared to CD150-stimulated EBV-t B cells (%) IL-12A (IL-12A) [%] | Inhibition rate of each cytokine compared to CD150-stimulated EBV-t B cells (%) IL-6 (IL-6) [%] | Inhibition rate of each cytokine compared to CD150-stimulated EBV-t B cells (%) IL-17A (IL-17A) [%] | Inhibition rate of each cytokine compared to CD150-stimulated EBV-t B cells (%) IL-2 (IL-2) [%] | Inhibition rate of each cytokine compared to CD150-stimulated EBV-t B cells (%) IL-5 (IL-5) [%] | Inhibition rate of each cytokine compared to CD150-stimulated EBV-t B cells (%) IL-4 (IL-4) [%] | Inhibition rate of each cytokine compared to CD150-stimulated EBV-t B cells (%) IL-34 (IL-34) [%] | Inhibition rate of each cytokine compared to CD150-stimulated EBV-t B cells (%) IL-10 (IL-10) [%] | Inhibition rate of each cytokine compared to CD150-stimulated EBV-t B cells (%) IL-13 (IL-13) [%]
1 | RTDCTR (SIS-1#3 peptide) | 14.0 | 7.2 | 19.2 | 20.0 | 19.4 | 18.2 | 11.0 | 12.3 | 17.4 | 13.2 | 9.8 | 25.2 | 10.2
2 | RDGRTD (SIS-1#17 peptide) | 18.8 | 14.8 | 22.0 | 20.5 | 16.0 | 16.8 | 23.8 | 17.0 | 14.0 | 32.0 | 20.8 | 15.8 | 14.8
3 | GRTDG (SIS-1#10 peptide) | 7.8 | 13.0 | 17.9 | 4.2 | 29.8 | 25.0 | 25.0 | 11.4 | 24.2 | 19.5 | 27.0 | 7.5 | 25.7
4 | PSPRDG (SIS-1#5 peptide) | 8.3 | 7.5 | 10.5 | 14.2 | 8.9 | 18.7 | 12.8 | 6.8 | 9.8 | 13.2 | 13.2 | 7.2 | 15.2
5 | RDGRT (SIS-1#16 peptide) | 16.2 | 6.2 | 33.0 | 17.0 | 29.8 | 22.8 | 32.8 | 15.4 | 20.3 | 23.9 | 23.1 | 31.2 | 24.5
